pEC50, pIC50: −log10 of the molar value.
How the values were obtained:
[1] = system: PD1-ss+10aa/Gaussia Luciferase; test: Dox-Induced PD1-ss-Gluc Assay; format: cell-based; conditions: 24 hr Dox induction; 293FRT/TO cells; mean; read-out: 24 hr Dox Inducible PD1ssGluc 293FRT/TO: Mean IC50
How it was run: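 The cell line was made by transfecting Flp-In 293 T-REx cells with a PD1 signal sequence+10aa–Gaussia luciferase fusion under T-REx control and selecting with hygromycin and blasticidin. Cells were seeded, and next day compound plus doxycycline was added at 37 °C, 5% CO2.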

[2] = system: multiple myeloma cell line NCI-H929; test: H929 Cell Viability Assay; format: cell-based, human; conditions: Homo sapiens, NCI-H929, 48 h, NCI-H929 cells, Celltiter-Glo
How it was run: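 Luminescent ATP detection (CellTiter-Glo) after 48 hours of compound exposure measures viability. Cells were plated in RPMI 1640 containing 10% fetal bovine serum and kept at 37° C under 5% CO2.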

[3] = system: TNFα-FL/Gaussia Luciferase; test: Dox Induced TNFα-FL-Gluc Assay; format: cell-based; conditions: for pIC50: 24 hr Dox induction, 293FRT/TO cells, mean, read-out: 24 hr Dox Inducible TNFaFLGluc 293FRT/TO: Mean IC50; for 24 hr Dox Inducible TNFaFLGluc 293FRT/TO: TNF/PD1: ratio of TNFaFLGluc IC50 to PD1ssGluc IC50, '<=>' given where both are I.A.
How it was run: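 Stereoisomer mixtures were tested where stereochemistry is not drawn. Induction used doxycycline added together with compound dilutions in DMSO/media to Flp-In 293 T-REx cells carrying a T-REx-regulated TNFα (aa 1-233)-Gaussia luciferase construct, then incubated at 37 °C, 5% CO2.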

[4] = Liver Microsome Stability Assay (human); conditions: human liver microsomes, with NADPH, 1.0 uM compound
Protocol: (§1) Stability of a compound was assessed in the presence of liver microsomes from various sources—mouse, rat, monkey and human liver microsomes. 1.0 uM compound, 0.4% DMSO in 0.1 M Potassium Phosphate with 1.0 mg/mL liver microsomes, were incubated at 37° C. with or without 1 mM NADPH. The samples were quenched at 0, and 30 minutes.

[5] = Liver Microsome Stability Assay (monkey); conditions: monkey liver microsomes, with NADPH, 1.0 uM compound
Protocol: as §1

[6] = system: multiple myeloma cell line U266B1; test: U266 Cell Viability Assay; format: cell-based, human; conditions: Homo sapiens, U-266, 48 h, U266B1 cells, Celltiter-Glo
How it was run: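 Steps: culture in RPMI 1640 plus 10% FBS and 2 mM glutamine; plate and add compound dilutions; incubate 48 hours at 37° C., 5% CO2; add CellTiter-Glo and quantify luciferase signal.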

[7] = system: IL-2-FL/Gaussia Luciferase; test: Dox Induced IL2-FL-Gluc Assay; format: cell-based; conditions: for pIC50: 24 hr Dox induction, 293FRT/TO cells, mean, read-out: 24 hr Dox Inducible IL2FLGluc 293FRT/TO: Mean IC50; for 24 hr Dox Inducible IL2FLGluc 293FRT/TO: IL2/PD1: ratio of IL2FLGluc IC50 to PD1ssGluc IC50, '<=>' given where both are I.A.
How it was run: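 Cells are plated one day ahead, then receive compound dilutions in DMSO/media with doxycycline and incubate at 37° C, 5% CO2. They are Flp-In 293 T-REx cells expressing a full-length IL-2 (amino acids 1-153)–Gaussia luciferase fusion under T-REx control.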

[8] = Liver Microsome Stability Assay (rat); conditions: rat liver microsomes, with NADPH, 1.0 uM compound
Protocol: as §1

[9] = Liver Microsome Stability Assay (mouse); conditions: mouse liver microsomes, with NADPH, 1.0 uM compound
Protocol: as §1

[10] = system: HER3-ss+4aa/Gaussia Luciferase; test: Dox-Induced Her3-ss-Gluc Assay; format: cell-based; conditions: 24 hr Dox induction; 293FRT/TO cells; mean; read-out: 24 hr Dox Inducible Her3(ss + 4)Gluc 293FRT/TO: Mean IC50
How it was run: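 Cells were seeded a day ahead, then given compound diluted in DMSO/media with doxycycline to induce expression of the HER3 signal sequence (+4 aa)–Gaussia luciferase fusion. Incubation was at 37° C., 5% CO2, in a stable Flp-In 293 T-REx line.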

| pIC50 [1] | pEC50 [2] | pIC50 [3] | Liver Microsome Stability (Multiple Species): Human - % Remaining after 30 min w/NADPH [4] [%] | Liver Microsome Stability (Multiple Species): Monkey - % Remaining after 30 min w/NADPH [5] [%] | pEC50 [6] | pIC50 [7] | Liver Microsome Stability (Multiple Species): Rat - % Remaining after 30 min w/NADPH [8] [%] | Liver Microsome Stability (Multiple Species): Mouse - % Remaining after 30 min w/NADPH [9] [%] | pIC50 [10] | Structure (SMILES) | 24 hr Dox Inducible TNFaFLGluc 293FRT/TO: TNF/PD1 [3] | 24 hr Dox Inducible IL2FLGluc 293FRT/TO: IL2/PD1 [7] |
| --- | --- | --- | --- | --- | --- | --- | --- | --- | --- | --- | --- | --- |
| 5.16 | < 4.60 | < 4.60 | 0.67 | 0.22 | < 4.60 | < 4.60 | 19.2 | 15.2 | < 4.60 | O=C(Nc1nc(/C=C/c2cn(CCO)cn2)cs1)c1cccn1Cc1ccncc1 [Compound C114, (E)-N-(4-(2-(1-(2-hydroxyethyl)-1H-imidazol-4-yl)vinyl)thiazol-2-yl)-1-(pyridin-4-ylmethyl)-1H-pyrrole-2-carboxamide] | >3.62 | >3.6 |
| 5.35 | < 4.60 | < 4.60 | 62.8 | 51.1 | < 4.60 | 5.69 | 36.8 | 38 | 5.74 | Cc1cccc(Cn2cccc2C(=O)Nc2nc([C@H]3CCCN3c3ccccc3)cs2)c1 [Compound C120, (R)-1-(3-methylbenzyl)-N-(4-(1-phenylpyrrolidin-2-yl)thiazol-2-yl)-1H-pyrrole-2-carboxamide] | >5.66 | 0.47 |
| 5.64 | < 4.60 | < 4.60 | 64.9 | 44.2 | < 4.60 | 5.87 | 50.2 | 52.1 | 5.92 | O=C(Nc1nc([C@H]2CCCN2c2ccccc2)cs1)c1cccn1Cc1cccc(Br)c1 [Compound C121, (R)-1-(3-bromobenzyl)-N-(4-(1-phenylpyrrolidin-2-yl)thiazol-2-yl)-1H-pyrrole-2-carboxamide] | >10.8 | 0.58 |

Continued, compound first:

| Structure (SMILES) | pIC50 [1] | pEC50 [2] | pIC50 [3] | Liver Microsome Stability (Multiple Species): Human - % Remaining after 30 min w/NADPH [4] [%] | Liver Microsome Stability (Multiple Species): Monkey - % Remaining after 30 min w/NADPH [5] [%] | pEC50 [6] | pIC50 [7] | Liver Microsome Stability (Multiple Species): Rat - % Remaining after 30 min w/NADPH [8] [%] | Liver Microsome Stability (Multiple Species): Mouse - % Remaining after 30 min w/NADPH [9] [%] | pIC50 [10] | 24 hr Dox Inducible TNFaFLGluc 293FRT/TO: TNF/PD1 [3] | 24 hr Dox Inducible IL2FLGluc 293FRT/TO: IL2/PD1 [7] |
| --- | --- | --- | --- | --- | --- | --- | --- | --- | --- | --- | --- | --- |
| N#CC[C@@H](O)Cn1cccc1C(=O)Nc1nc([C@H]2CCCN2c2ccccc2)cs1 [Compound C112, 1-((R)-3-cyano-2-hydroxypropyl)-N-(4-((R)-1-phenylpyrrolidin-2-yl)thiazol-2-yl)-1H-pyrrole-2-carboxamide] | 6.26 | 4.68 | 5.01 | 23.6 | 13.1 | < 4.60 | 5.64 | 12.6 | 3.03 | 5.65 | 17.9 | 4.2 |
| CCC(CC#N)Cn1cccc1C(=O)Nc1nc([C@H]2CCCN2c2ccccc2)cs1 (stereo partly drawn) [Compound C113, 1-(2-(cyanomethyl)butyl)-N-(4-((R)-1-phenylpyrrolidin-2-yl)thiazol-2-yl)-1H-pyrrole-2-carboxamide] | 6.06 | 4.64 | 4.79 | 14.9 | 3.66 | < 4.60 | 5.75 | 14.8 | 5.06 | 5.88 | 18.6 | 2 |
| O=C(Nc1nc([C@H]2CCCN2c2ccccc2)cs1)c1cccn1-c1csc2cnccc12 [Compound C115, (R)-N-(4-(1-phenylpyrrolidin-2-yl)thiazol-2-yl)-1-(thieno[2,3-c]pyridin-3-yl)-1H-pyrrole-2-carboxamide] | 6.54 | < 4.64 | 5.45 | 1.3 | 0.66 | < 4.60 | 6.21 | 2.2 | 1.07 | 6.26 | 12.3 | 2.1 |
| O=C(Nc1nc([C@H]2CCCN2c2ccccc2)cs1)c1cccn1CCCC1COC1 [Compound C116, (R)-1-(3-(oxetan-3-yl)propyl)-N-(4-(1-phenylpyrrolidin-2-yl)thiazol-2-yl)-1H-pyrrole-2-carboxamide] | 5.99 | < 4.60 | 5.12 | 24.8 | 6.55 | < 4.60 | 5.80 | 6.02 | 5.51 | 5.98 | 7.3 | 1.5 |
| CC(=O)Nc1ccc(N2CCC[C@@H]2c2csc(NC(=O)c3cccn3C[C@@H](C)CC#N)n2)cc1 [Compound C117, N-(4-((R)-1-(4-acetamidophenyl)pyrrolidin-2-yl)thiazol-2-yl)-1-((S)-3-cyano-2-methylpropyl)-1H-pyrrole-2-carboxamide] | 7.59 | 5.95 | 6.56 | 9.81 | 4.1 | < 4.60 | 7.27 | 16.5 | 7.53 | 7.30 | 10.7 | 2.1 |
| O=C(Nc1nc([C@H]2CCCN2c2ccccc2)cs1)c1cccn1Cc1cccc(F)c1 [Compound C118, (R)-1-(3-fluorobenzyl)-N-(4-(1-phenylpyrrolidin-2-yl)thiazol-2-yl)-1H-pyrrole-2-carboxamide] | 6.14 | < 4.60 | 5.01 | 59.7 | 26.9 | < 4.60 | 6.00 | 33.5 | 48.1 | 6.14 | 13.6 | 1.4 |
| O=C(Nc1nc([C@H]2CCCN2c2ccccc2)cs1)c1cccn1Cc1ccc(F)cc1 [Compound C119, (R)-1-(4-fluorobenzyl)-N-(4-(1-phenylpyrrolidin-2-yl)thiazol-2-yl)-1H-pyrrole-2-carboxamide] | 5.67 | < 4.60 | < 4.60 | 61.3 | 23.4 | < 4.60 | 5.79 | 49.6 | 42.4 | 5.82 | >11.8 | 0.76 |

Source: patent US20230286973A1, “PROTEIN SECRETION INHIBITORS” (KEZAR LIFE SCIENCES, priority 2020, published 2023)
